Laboratory results as given in PubChem BioAssay (NCI).
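These data come from cells grown in 96-well plates and exposed to compound for 48 hours at five concentrations. TGI: concentration producing complete growth inhibition.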

Columns and labels:
Test in all cases: NCI tumour cell line growth inhibition, 48 h
MOLT-4 leukemia = tested on: MOLT-4 leukemia
NCI-H460 lung = tested on: NCI-H460 lung
HCT-15 colon = tested on: HCT-15 colon
A549 NSCLC = tested on: A549 NSCLC
SN12C renal = tested on: SN12C renal
SK-OV-3 ovarian = tested on: SK-OV-3 ovarian
OVCAR-5 ovarian = tested on: OVCAR-5 ovarian
MDA-MB-231 breast = tested on: MDA-MB-231 breast
MDA-N = tested on: MDA-N
NCI-H23 lung = tested on: NCI-H23 lung
A498 renal = tested on: A498 renal
PC-3 prostate = tested on: PC-3 prostate
M14 melanoma = tested on: M14 melanoma
DU-145 prostate = tested on: DU-145 prostate
UACC-62 melanoma = tested on: UACC-62 melanoma
MCF7 breast = tested on: MCF7 breast
K-562 leukemia = tested on: K-562 leukemia
SK-MEL-2 melanoma = tested on: SK-MEL-2 melanoma
COLO 205 colon = tested on: COLO 205 colon
EKVX NSCLC = tested on: EKVX NSCLC
SF-268 CNS = tested on: SF-268 CNS
SR leukemia = tested on: SR leukemia
OVCAR-4 ovarian = tested on: OVCAR-4 ovarian
TK-10 renal = tested on: TK-10 renal
786-0 renal = tested on: 786-0 renal
RXF 393 renal = tested on: RXF 393 renal
OVCAR-3 ovarian = tested on: OVCAR-3 ovarian
MALME-3M melanoma = tested on: MALME-3M melanoma
UO-31 renal = tested on: UO-31 renal
NCI-H522 lung = tested on: NCI-H522 lung
SNB-19 CNS = tested on: SNB-19 CNS
CAKI-1 renal = tested on: CAKI-1 renal
U251 CNS = tested on: U251 CNS
SW-620 colon = tested on: SW-620 colon
HOP-62 NSCLC = tested on: HOP-62 NSCLC
SK-MEL-28 melanoma = tested on: SK-MEL-28 melanoma
HOP-92 NSCLC = tested on: HOP-92 NSCLC
HT29 colon = tested on: HT29 colon
ACHN renal = tested on: ACHN renal
RPMI-8226 leukemia = tested on: RPMI-8226 leukemia
SF-295 CNS = tested on: SF-295 CNS
NCI/ADR-RES ovarian = tested on: NCI/ADR-RES ovarian
NCI-H226 lung = tested on: NCI-H226 lung
UACC-257 melanoma = tested on: UACC-257 melanoma
OVCAR-8 ovarian = tested on: OVCAR-8 ovarian
MDA-MB-435 = tested on: MDA-MB-435
HCC-2998 colon = tested on: HCC-2998 colon
BT-549 breast = tested on: BT-549 breast
SK-MEL-5 melanoma = tested on: SK-MEL-5 melanoma
CCRF-CEM leukemia = tested on: CCRF-CEM leukemia
HL-60(TB) leukemia = tested on: HL-60(TB) leukemia
LOX IMVI melanoma = tested on: LOX IMVI melanoma
SNB-75 CNS = tested on: SNB-75 CNS
KM12 colon = tested on: KM12 colon
SF-539 CNS = tested on: SF-539 CNS
IGROV1 ovarian = tested on: IGROV1 ovarian
HCT-116 colon = tested on: HCT-116 colon

## COc1cc2c[n+](C)c3c4cc(OC)c(OC)cc4c(OCc4ccccc4)cc3c2cc1OC
MOLT-4 leukemia
  TGI: > 80.1 µM
NCI-H460 lung
  TGI: > 100 µM
HCT-15 colon
  TGI: > 100 µM
A549 NSCLC
  TGI: > 100 µM
SN12C renal
  TGI: > 100 µM
SK-OV-3 ovarian
  TGI: > 100 µM
OVCAR-5 ovarian
  TGI: > 100 µM
MDA-MB-231 breast
  TGI: 6.69 µM
MDA-N
  TGI: 2.53 µM
NCI-H23 lung
  TGI: 4.36 µM
A498 renal
  TGI: > 86.7 µM
PC-3 prostate
  TGI: 3.41 µM
M14 melanoma
  TGI: 4.2 µM
DU-145 prostate
  TGI: 9.81 µM
UACC-62 melanoma
  TGI: 1800 nM
MCF7 breast
  TGI: 5.05 µM
K-562 leukemia
  TGI: > 100 µM
SK-MEL-2 melanoma
  TGI: 3.37 µM
COLO 205 colon
  TGI: 1.96 µM
EKVX NSCLC
  TGI: > 100 µM
SF-268 CNS
  TGI: 1970 nM
SR leukemia
  TGI: > 100 µM
OVCAR-4 ovarian
  TGI: > 27.5 µM
TK-10 renal
  TGI: > 100 µM
786-0 renal
  TGI: 12.3 µM
RXF 393 renal
  TGI: 6.19 µM
OVCAR-3 ovarian
  TGI: 3.97 µM
MALME-3M melanoma
  TGI: 3.31 µM
UO-31 renal
  TGI: > 100 µM
NCI-H522 lung
  TGI: 1500 nM
SNB-19 CNS
  TGI: 1920 nM
CAKI-1 renal
  TGI: > 90.7 µM
U251 CNS
  TGI: 1.08 µM
SW-620 colon
  TGI: > 100 µM
HOP-62 NSCLC
  TGI: 10.5 µM
SK-MEL-28 melanoma
  TGI: 2550 nM
HOP-92 NSCLC
  TGI: 3.24 µM
HT29 colon
  TGI: 7.29 µM
ACHN renal
  TGI: > 100 µM
RPMI-8226 leukemia
  TGI: 77.2 µM
SF-295 CNS
  TGI: 96.9 µM
NCI/ADR-RES ovarian
  TGI: > 100 µM
NCI-H226 lung
  TGI: 3.94 µM
UACC-257 melanoma
  TGI: 3.38 µM
OVCAR-8 ovarian
  TGI: 5.02 µM
MDA-MB-435
  TGI: 2.34 µM
HCC-2998 colon
  TGI: 41.3 µM
BT-549 breast
  TGI: 1710 nM
SK-MEL-5 melanoma
  TGI: 2.69 µM

## O=CC1=C(C(=O)OC(c2ccccc2)c2ccccc2)N2C(=O)[C@@H](NC(=O)Cc3cccs3)[C@H]2SC1
MOLT-4 leukemia
  TGI: > 100 µM
NCI-H460 lung
  TGI: > 100 µM
HCT-15 colon
  TGI: > 100 µM
A549 NSCLC
  TGI: > 100 µM
CCRF-CEM leukemia
  TGI: > 100 µM
SN12C renal
  TGI: > 100 µM
SK-OV-3 ovarian
  TGI: > 100 µM
HL-60(TB) leukemia
  TGI: > 100 µM
OVCAR-5 ovarian
  TGI: > 100 µM
MDA-MB-231 breast
  TGI: > 100 µM
MDA-N
  TGI: > 100 µM
NCI-H23 lung
  TGI: > 100 µM
A498 renal
  TGI: > 100 µM
PC-3 prostate
  TGI: > 100 µM
M14 melanoma
  TGI: > 100 µM
DU-145 prostate
  TGI: > 100 µM
UACC-62 melanoma
  TGI: > 100000 nM
MCF7 breast
  TGI: > 100 µM
K-562 leukemia
  TGI: > 100 µM
SK-MEL-2 melanoma
  TGI: > 100 µM
LOX IMVI melanoma
  TGI: > 100 µM
COLO 205 colon
  TGI: > 100 µM
EKVX NSCLC
  TGI: > 100 µM
SR leukemia
  TGI: > 100 µM
OVCAR-4 ovarian
  TGI: > 100 µM
TK-10 renal
  TGI: > 100 µM
786-0 renal
  TGI: > 100 µM
RXF 393 renal
  TGI: > 100 µM
OVCAR-3 ovarian
  TGI: > 100 µM
MALME-3M melanoma
  TGI: > 100 µM
UO-31 renal
  TGI: > 100 µM
NCI-H522 lung
  TGI: > 100000 nM
CAKI-1 renal
  TGI: > 100 µM
U251 CNS
  TGI: > 100 µM
SW-620 colon
  TGI: > 100 µM
SNB-75 CNS
  TGI: > 100 µM
HOP-92 NSCLC
  TGI: > 100 µM
ACHN renal
  TGI: > 100 µM
RPMI-8226 leukemia
  TGI: > 100 µM
SF-295 CNS
  TGI: > 100 µM
NCI/ADR-RES ovarian
  TGI: > 100 µM
NCI-H226 lung
  TGI: > 100 µM
KM12 colon
  TGI: > 100 µM
UACC-257 melanoma
  TGI: > 100 µM
OVCAR-8 ovarian
  TGI: > 100 µM
MDA-MB-435
  TGI: > 100 µM
HCC-2998 colon
  TGI: > 100 µM
SF-539 CNS
  TGI: > 100 µM
IGROV1 ovarian
  TGI: > 100 µM
HCT-116 colon
  TGI: > 100 µM
SK-MEL-5 melanoma
  TGI: > 100 µM

## CC(C(=O)O)c1ccc(-n2nnc3c(=O)[nH][nH]c(=O)c32)cc1 (stereo not drawn)
MOLT-4 leukemia
  TGI: > 100 µM
NCI-H460 lung
  TGI: > 100 µM
HCT-15 colon
  TGI: > 100 µM
A549 NSCLC
  TGI: > 100 µM
CCRF-CEM leukemia
  TGI: > 100 µM
SN12C renal
  TGI: > 100 µM
HL-60(TB) leukemia
  TGI: > 100 µM
OVCAR-5 ovarian
  TGI: > 100 µM
MDA-MB-231 breast
  TGI: > 100 µM
MDA-N
  TGI: > 100 µM
NCI-H23 lung
  TGI: > 100 µM
PC-3 prostate
  TGI: > 100 µM
M14 melanoma
  TGI: > 100 µM
DU-145 prostate
  TGI: > 100 µM
MCF7 breast
  TGI: > 100 µM
K-562 leukemia
  TGI: > 100 µM
SK-MEL-2 melanoma
  TGI: > 100 µM
LOX IMVI melanoma
  TGI: > 100 µM
COLO 205 colon
  TGI: > 100 µM
EKVX NSCLC
  TGI: > 100 µM
SR leukemia
  TGI: > 100 µM
OVCAR-4 ovarian
  TGI: > 100 µM
TK-10 renal
  TGI: > 100 µM
OVCAR-3 ovarian
  TGI: > 100 µM
MALME-3M melanoma
  TGI: > 100 µM
UO-31 renal
  TGI: > 100 µM
SNB-19 CNS
  TGI: > 100000 nM
CAKI-1 renal
  TGI: > 100 µM
U251 CNS
  TGI: > 100 µM
HOP-62 NSCLC
  TGI: > 100 µM
SK-MEL-28 melanoma
  TGI: > 100000 nM
ACHN renal
  TGI: > 100 µM
RPMI-8226 leukemia
  TGI: > 100 µM
SF-295 CNS
  TGI: > 100 µM
NCI/ADR-RES ovarian
  TGI: > 100 µM
KM12 colon
  TGI: > 100 µM
UACC-257 melanoma
  TGI: > 100 µM
OVCAR-8 ovarian
  TGI: > 100 µM
MDA-MB-435
  TGI: > 100 µM
HCC-2998 colon
  TGI: > 100 µM
BT-549 breast
  TGI: > 100000 nM
HCT-116 colon
  TGI: > 100 µM
SK-MEL-5 melanoma
  TGI: > 100 µM
